The target of assay [1] is human JAK3 (Homo sapiens (Human), UniProt P52333). As to the kind of experiment: JAK3 TR-FRET kinase assay. The assay is classed as biochemical. To be noted: JAK3 0.0125 nM. (TR-FRET usually uses a lanthanide donor and a delayed reading to cut background.)
Assay [2] concerns the target TYK2 JH2 domain (Homo sapiens (Human), UniProt P29597). As to the kind of experiment: TYK2 JH2 NanoBRET assay. The assay is classed as binding. Conditions: Table 20, read-out: TYK2 IC50. The procedure, abridged:
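HEK293T cells transiently expressing NanoLuc-TYK2 JH2 fusion, incubated 2 h with compound and NanoBRET K10 tracer (0.5 µM final). Target engagement read as acceptor/donor BRET ratio after Nano-Glo substrate plus extracellular NanoLuc inhibitor.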
(In BRET a luciferase serves as donor, and the signal depends on an acceptor being close.)

Assay [3] has as its target human JAK2 (Homo sapiens (Human), UniProt O60674). As to the kind of experiment: JAK2 TR-FRET kinase assay. The assay is classed as biochemical. Conditions: JAK2 0.025 nM.
For assay [4], the target named is human JAK1 (Homo sapiens (Human), UniProt P23458). As to the kind of experiment: JAK1 TR-FRET kinase assay. The assay is classed as biochemical. Conditions: TR-FRET, JAK1 2.5 nM.

SMILES strings stand for the structures. A value given as a limit tells only on which side of the number the result lay.

TYK2 JH2 domain, sequence (P29597 589-875): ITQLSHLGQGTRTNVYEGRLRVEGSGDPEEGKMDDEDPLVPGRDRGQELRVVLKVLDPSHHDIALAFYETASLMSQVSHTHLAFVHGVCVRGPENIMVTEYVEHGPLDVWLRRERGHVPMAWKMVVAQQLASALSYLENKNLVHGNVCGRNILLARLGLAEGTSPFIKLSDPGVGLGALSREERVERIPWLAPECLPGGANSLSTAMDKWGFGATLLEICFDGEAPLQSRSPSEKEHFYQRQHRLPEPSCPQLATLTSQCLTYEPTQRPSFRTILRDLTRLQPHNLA
human JAK2, sequence (O60674 whole entry): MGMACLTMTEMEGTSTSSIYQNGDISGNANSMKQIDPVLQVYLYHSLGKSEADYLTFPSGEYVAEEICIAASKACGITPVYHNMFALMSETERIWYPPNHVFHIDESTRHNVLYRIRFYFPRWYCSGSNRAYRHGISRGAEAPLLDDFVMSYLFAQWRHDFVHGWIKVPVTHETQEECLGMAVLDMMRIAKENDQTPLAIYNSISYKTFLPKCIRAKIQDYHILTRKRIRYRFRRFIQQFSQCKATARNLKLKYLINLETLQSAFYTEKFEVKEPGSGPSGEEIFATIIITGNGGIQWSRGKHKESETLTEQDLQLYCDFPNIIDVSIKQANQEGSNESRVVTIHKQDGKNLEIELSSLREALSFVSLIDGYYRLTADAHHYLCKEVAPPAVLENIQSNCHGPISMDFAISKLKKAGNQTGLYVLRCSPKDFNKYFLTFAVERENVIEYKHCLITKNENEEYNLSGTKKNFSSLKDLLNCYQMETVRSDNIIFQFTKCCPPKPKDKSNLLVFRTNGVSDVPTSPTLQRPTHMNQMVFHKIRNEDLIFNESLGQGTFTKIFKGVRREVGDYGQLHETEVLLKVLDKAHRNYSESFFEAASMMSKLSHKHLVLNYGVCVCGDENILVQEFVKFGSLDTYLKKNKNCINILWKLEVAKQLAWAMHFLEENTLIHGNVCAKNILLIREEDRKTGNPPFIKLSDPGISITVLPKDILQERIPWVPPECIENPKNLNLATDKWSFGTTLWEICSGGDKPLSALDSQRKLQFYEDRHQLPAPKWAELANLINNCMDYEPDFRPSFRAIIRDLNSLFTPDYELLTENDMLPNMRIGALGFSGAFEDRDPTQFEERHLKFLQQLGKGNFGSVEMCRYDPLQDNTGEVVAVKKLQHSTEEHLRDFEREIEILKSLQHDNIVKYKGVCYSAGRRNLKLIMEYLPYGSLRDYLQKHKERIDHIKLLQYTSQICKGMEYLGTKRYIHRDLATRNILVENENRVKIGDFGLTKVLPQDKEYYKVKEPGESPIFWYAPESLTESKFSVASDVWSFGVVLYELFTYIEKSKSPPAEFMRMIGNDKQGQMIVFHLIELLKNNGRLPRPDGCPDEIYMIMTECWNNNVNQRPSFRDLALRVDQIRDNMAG
human JAK1, sequence (P23458 whole entry): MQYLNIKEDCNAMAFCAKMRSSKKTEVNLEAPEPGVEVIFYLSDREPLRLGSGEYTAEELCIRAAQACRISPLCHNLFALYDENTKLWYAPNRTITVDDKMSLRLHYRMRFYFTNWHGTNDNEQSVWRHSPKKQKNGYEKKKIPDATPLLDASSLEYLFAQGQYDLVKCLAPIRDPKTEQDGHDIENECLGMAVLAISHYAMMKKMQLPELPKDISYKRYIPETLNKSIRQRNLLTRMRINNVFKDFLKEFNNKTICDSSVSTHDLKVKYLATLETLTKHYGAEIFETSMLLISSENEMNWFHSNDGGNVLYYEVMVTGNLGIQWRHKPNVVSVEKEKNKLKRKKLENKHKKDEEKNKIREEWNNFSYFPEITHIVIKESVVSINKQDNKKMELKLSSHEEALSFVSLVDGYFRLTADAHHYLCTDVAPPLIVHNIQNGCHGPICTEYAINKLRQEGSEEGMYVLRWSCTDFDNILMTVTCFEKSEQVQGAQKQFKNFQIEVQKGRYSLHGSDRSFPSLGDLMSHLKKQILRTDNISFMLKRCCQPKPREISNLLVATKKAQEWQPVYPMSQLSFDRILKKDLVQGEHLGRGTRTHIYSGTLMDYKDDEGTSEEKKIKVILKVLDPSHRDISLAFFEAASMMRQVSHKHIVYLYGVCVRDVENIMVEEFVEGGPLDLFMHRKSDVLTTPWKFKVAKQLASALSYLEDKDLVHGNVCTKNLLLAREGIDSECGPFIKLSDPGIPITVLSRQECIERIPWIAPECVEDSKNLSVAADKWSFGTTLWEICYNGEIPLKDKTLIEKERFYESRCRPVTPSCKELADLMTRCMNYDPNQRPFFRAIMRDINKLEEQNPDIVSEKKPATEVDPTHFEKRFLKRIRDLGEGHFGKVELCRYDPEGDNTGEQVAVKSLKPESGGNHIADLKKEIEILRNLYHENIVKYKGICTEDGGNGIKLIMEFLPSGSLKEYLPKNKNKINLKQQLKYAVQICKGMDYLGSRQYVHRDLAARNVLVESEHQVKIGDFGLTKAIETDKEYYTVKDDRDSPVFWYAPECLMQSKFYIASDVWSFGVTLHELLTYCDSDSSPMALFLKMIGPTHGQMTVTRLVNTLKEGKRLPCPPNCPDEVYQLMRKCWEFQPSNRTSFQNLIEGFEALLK
human JAK3, sequence (P52333 whole entry, the tested form may be a part): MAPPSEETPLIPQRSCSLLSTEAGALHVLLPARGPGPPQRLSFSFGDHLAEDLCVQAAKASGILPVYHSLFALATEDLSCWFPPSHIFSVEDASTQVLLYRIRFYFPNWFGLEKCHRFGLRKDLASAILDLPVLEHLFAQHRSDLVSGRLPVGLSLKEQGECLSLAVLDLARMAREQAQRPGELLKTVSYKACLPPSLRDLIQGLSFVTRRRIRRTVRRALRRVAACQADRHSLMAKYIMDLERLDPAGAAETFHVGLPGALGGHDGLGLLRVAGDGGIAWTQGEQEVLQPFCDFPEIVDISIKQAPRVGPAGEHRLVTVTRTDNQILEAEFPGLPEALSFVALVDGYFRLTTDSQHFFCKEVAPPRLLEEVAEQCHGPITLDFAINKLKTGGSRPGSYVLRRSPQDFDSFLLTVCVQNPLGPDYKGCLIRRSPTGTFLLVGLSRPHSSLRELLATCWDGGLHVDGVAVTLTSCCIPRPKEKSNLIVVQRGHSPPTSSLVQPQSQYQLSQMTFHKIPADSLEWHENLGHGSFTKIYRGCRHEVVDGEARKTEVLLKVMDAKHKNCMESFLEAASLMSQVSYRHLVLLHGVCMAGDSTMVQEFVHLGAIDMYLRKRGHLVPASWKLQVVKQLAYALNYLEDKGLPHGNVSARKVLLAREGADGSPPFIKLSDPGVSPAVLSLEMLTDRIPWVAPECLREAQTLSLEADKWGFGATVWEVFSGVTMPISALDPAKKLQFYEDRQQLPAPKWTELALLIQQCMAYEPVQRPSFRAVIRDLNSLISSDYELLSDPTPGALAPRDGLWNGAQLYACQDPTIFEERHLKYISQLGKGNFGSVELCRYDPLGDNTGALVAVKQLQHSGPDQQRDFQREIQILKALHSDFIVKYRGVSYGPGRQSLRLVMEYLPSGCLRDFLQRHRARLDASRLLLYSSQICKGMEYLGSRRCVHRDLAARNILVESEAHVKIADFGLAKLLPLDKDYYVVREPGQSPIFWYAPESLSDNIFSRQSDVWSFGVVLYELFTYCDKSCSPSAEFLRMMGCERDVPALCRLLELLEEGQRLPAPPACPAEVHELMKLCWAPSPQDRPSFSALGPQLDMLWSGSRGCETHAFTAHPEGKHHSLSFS

A word on the IC50: it is the midpoint of a concentration-inhibition curve. Take `CCC(=O)c1cnc(Nc2ccc(OC3COC3)c(C)n2)cc1Nc1cccc(-c2ncn(C)n2)c1OC` [Compound 18ZZZ]: the IC50 in assay [1] is 50 to 500 nM; in assay [2], less than 5 nM; in assay [3], 50 to 500 nM; in assay [4], no less than 500 nM.

`CCC(=O)c1cnc(Nc2ccc(O[C@H]3CCN(C)C3)cn2)cc1Nc1cccc(-c2ncn(C)n2)c1OC` [Compound 18W]: the IC50 in assay [1] is no less than 500 nM; in assay [2] it was less than 5 nM; in assay [3] it was no less than 500 nM; in assay [4], no less than 500 nM.

For the compound `CCC(=O)c1cnc(Nc2ccc(C(=O)N(C)C)cn2)cc1Nc1cccc(-c2ncn(C)n2)c1OC` [Compound 8D], the IC50 in assay [1] was no less than 500 nM; in assay [2], less than 5 nM; in assay [3], no less than 500 nM; in assay [4] it was no less than 500 nM.

As to `CCC(=O)c1cnc(Nc2ccc(OC(CO)CO)cn2)cc1Nc1cccc(-c2ncn(C)n2)c1OC` [Compound 18H], the IC50 in assay [1] is no less than 500 nM; in assay [2] it was 5 to 50 nM; in assay [3] it was no less than 500 nM; in assay [4], no less than 500 nM.

Turning to `CCC(=O)c1cnc(Nc2ccn(CCC#N)n2)cc1Nc1cccc(-c2ncn(C)n2)c1OC` [Compound 21M], the IC50 was 50 to 500 nM in assay [1], 5 to 50 nM in assay [2], no less than 500 nM in assay [3] and no less than 500 nM in assay [4].

Regarding `COc1c(Nc2cc(Nc3ccc(OC[C@@H](O)CO)cn3)ncc2C(=O)C2CC2)cccc1-c1ncn(C)n1` [Compound 18I], the IC50 in assay [1] was no less than 500 nM; in assay [2], 5 to 50 nM; in assay [3] it was no less than 500 nM; in assay [4], no less than 500 nM.

Take `CCC(=O)c1cnc(Nc2ccc(CN(C)C3CC3)cn2)cc1Nc1cccc(-c2ncn(C)n2)c1OC` [Compound 9R]: the IC50 in assay [1] is no less than 500 nM; in assay [2], 5 to 50 nM; in assay [3], no less than 500 nM; in assay [4], no less than 500 nM.

On to `CCC(=O)c1cnc(Nc2ncc(CNC)cc2F)cc1Nc1cccc(-c2ncn(C)n2)c1OC` [Compound 9EEEE], for which the IC50 is no less than 500 nM in assay [1], 5 to 50 nM in assay [2], no less than 500 nM in assay [3] and no less than 500 nM in assay [4].

Take `CCC(=O)c1cnc(Nc2ccc(S(C)(=O)=O)cn2)cc1Nc1cccc(COC)c1OC` [Compound 13R]: the IC50 is no less than 500 nM in assay [1], 5 to 50 nM in assay [2], no less than 500 nM in assay [3] and no less than 500 nM in assay [4].

Regarding `CCC(=O)c1cnc(Nc2ccc(-n3ccnc3)cn2)cc1Nc1nccc(-c2ncn(C)n2)c1OC` [Compound 15P], the IC50 is no less than 500 nM in assay [1], less than 5 nM in assay [2], no less than 500 nM in assay [3] and no less than 500 nM in assay [4].

`CCC(=O)c1cnc(Nc2cccc(CN3CCCC3)n2)cc1Nc1cccc(-c2ncn(C)n2)c1OC` [Compound 9FFFF]: the IC50 in assay [1] was no less than 500 nM; in assay [2], 5 to 50 nM; in assay [3], no less than 500 nM; in assay [4] it was no less than 500 nM.

`CCC(=O)c1cnc(Nc2ccc(S(C)(=O)=O)cn2)cc1Nc1cccc(-c2ncn(C)n2)c1OC` [Compound 12A, 1-(4-((2-methoxy-3-(1-methyl-1H-1,2,4-triazol-3-yl)phenyl)amino)-6-((5-(methylsulfonyl)pyridin-2-yl)amino)pyridin-3-yl)propan-1-one]: the IC50 was no less than 500 nM in assay [1], less than 5 nM in assay [2], no less than 500 nM in assay [3] and no less than 500 nM in assay [4].

Consider `CCC(=O)c1cnc(Nc2cccc(C(=O)O)n2)cc1Nc1cccc(-c2ncn(C)n2)c1OC` [Compound 8I], for which the IC50 in assay [1], in assay [2], in assay [3] and in assay [4] was no less than 500 nM throughout.

`CCC(=O)c1cnc(Nc2ccc(CN(C)C(C)C)cn2)cc1Nc1cccc(-c2ncn(C)n2)c1OC` [Compound 9T]: the IC50 in assay [1] was no less than 500 nM; in assay [2], less than 5 nM; in assay [3] it was no less than 500 nM; in assay [4], no less than 500 nM.

Regarding `CCC(=O)c1cnc(Nc2ccc(CN(C)C)cn2)cc1Nc1cccc(-c2ncc(F)cn2)c1OC` [Compound 9D], the IC50 in assay [1] is no less than 500 nM; in assay [2], 5 to 50 nM; in assay [3], no less than 500 nM; in assay [4], no less than 500 nM.

Consider `CCC(=O)c1cnc(Nc2ccc(C(C)N(C)C)cn2)cc1Nc1cccc(-c2ncn(C)n2)c1OC` (stereo not shown) [Compound 9I], for which the IC50 in assay [1] is no less than 500 nM; in assay [2], less than 5 nM; in assay [3], no less than 500 nM; in assay [4] it was no less than 500 nM.

With `CCC(=O)c1cnc(Nc2cc(C(=O)NC)ccn2)cc1Nc1cccc(-c2ncn(C)n2)c1OC` [Compound 8G], the IC50 is no less than 500 nM in assay [1], less than 5 nM in assay [2], no less than 500 nM in assay [3] and no less than 500 nM in assay [4].

As for `CCC(=O)c1cnc(Nc2ccc(C(C)(C)N(C)C)nn2)cc1Nc1cccc(-c2ncn(C)n2)c1OC` [Compound 9NNN], the IC50 was no less than 500 nM in assay [1], 5 to 50 nM in assay [2], no less than 500 nM in assay [3] and no less than 500 nM in assay [4].

With `CCC(=O)c1cnc(Nc2cnc(O[C@@H]3CCN(C)C3)c(C)n2)cc1Nc1cccc(-c2ncn(C)n2)c1OC` [Compound 18JJJ], the IC50 in assay [1] was no less than 500 nM; in assay [2], 5 to 50 nM; in assay [3], no less than 500 nM; in assay [4], no less than 500 nM.

Turning to `CCC(=O)c1cnc(Nc2nc(CN3CCCC3)ns2)cc1Nc1cccc(-c2ncn(C)n2)c1OC` [Compound 21H], the IC50 in assay [1] is no less than 500 nM; in assay [2], 50 to 500 nM; in assay [3] it was no less than 500 nM; in assay [4], no less than 500 nM.

`CCC(=O)c1cnc(Nc2cnc(O[C@H]3CN(C)CC3(F)F)cn2)cc1Nc1cccc(-c2ncn(C)n2)c1OC` [Compound 18RRR]: the IC50 is no less than 500 nM in assay [1], 5 to 50 nM in assay [2], no less than 500 nM in assay [3] and no less than 500 nM in assay [4].

Take `CCC(=O)c1cnc(NC(=O)[C@@H]2C[C@H]2CN(C)C)cc1Nc1cccc(-c2ncn(C)n2)c1OC` [Compound 22D]: the IC50 in assay [1] was no less than 500 nM; in assay [2], 5 to 50 nM; in assay [3] it was no less than 500 nM; in assay [4], no less than 500 nM.

`CCC(=O)c1cnc(Nc2cnc(OCCN3CCOCC3)cn2)cc1Nc1cccc(-c2ncn(C)n2)c1OC` [Compound 18GGG]: the IC50 in assay [1] is no less than 500 nM; in assay [2], 5 to 50 nM; in assay [3], no less than 500 nM; in assay [4], no less than 500 nM.

With `CCC(=O)c1cnc(Nc2ccn(-c3ccccc3)c(=O)n2)cc1Nc1nccc(-c2ncn(C)n2)c1OC` [Compound 15S], the IC50 was no less than 500 nM in assay [1], 5 to 50 nM in assay [2], no less than 500 nM in assay [3] and no less than 500 nM in assay [4].

As for `CCC(=O)c1cnc(Nc2ccc(CN)cn2)cc1Nc1cccc(-c2ncn(C)n2)c1OC` [Compound 9B], the IC50 in assay [1] is no less than 500 nM; in assay [2], less than 5 nM; in assay [3] it was no less than 500 nM; in assay [4] it was no less than 500 nM.

Consider `CCC(=O)c1cnc(Nc2ccn(CCN3CCCC3)n2)cc1Nc1cccc(-c2ncn(C)n2)c1OC` [Compound 21C], for which the IC50 is no less than 500 nM in assay [1], 5 to 50 nM in assay [2], no less than 500 nM in assay [3] and no less than 500 nM in assay [4].

Take `CCC(=O)c1cnc(Nc2ccc(CN(C)CC#N)cn2)cc1Nc1cccc(-c2ncn(C)n2)c1OC` [Compound 9BB]: the IC50 was no less than 500 nM in assay [1], 5 to 50 nM in assay [2], no less than 500 nM in assay [3] and no less than 500 nM in assay [4].

With `CCC(=O)c1cnc(Nc2ccc(C(=O)NC)cn2)cc1Nc1cccc(-c2ncn(C)n2)c1OC` [Compound 8C], the half-maximal inhibitory concentration (IC50) in assay [1] is no less than 500 nM; in assay [2] it was less than 5 nM; in assay [3], no less than 500 nM; in assay [4], no less than 500 nM.

In the case of `CCC(=O)c1cnc(Nc2ccc(C3(N)CC3)cn2)cc1Nc1cccc(-c2ncn(C)n2)c1OC` [Compound 9O], the IC50 is no less than 500 nM in assay [1], less than 5 nM in assay [2], no less than 500 nM in assay [3] and no less than 500 nM in assay [4].

For `COc1c(Nc2cc(Nc3ccc(OCCN(C)C)cn3)ncc2C(=O)C2CC2)cccc1-c1ncn(C)n1` [Compound 18T], the IC50 in assay [1] is no less than 500 nM; in assay [2], 5 to 50 nM; in assay [3] it was no less than 500 nM; in assay [4], no less than 500 nM.

`CCC(=O)c1cnc(Nc2ccnc(OC3CN(C)C3)n2)cc1Nc1cccc(-c2ncn(C)n2)c1OC` [Compound 18JJ]: the IC50 in assay [1] is no less than 500 nM; in assay [2], 5 to 50 nM; in assay [3] it was no less than 500 nM; in assay [4], no less than 500 nM.

Regarding `CCC(=O)c1cnc(Nc2ccc(C(N)=O)cn2)cc1Nc1cccc(-c2ncn(C)n2)c1OC` [Compound 8A, 6-((4-((2-methoxy-3-(1-methyl-1H-1,2,4-triazol-3-yl)phenyl)amino)-5-propionylpyridin-2-yl)amino)nicotinamide], the IC50 in assay [1] is 50 to 500 nM; in assay [2], less than 5 nM; in assay [3] it was 50 to 500 nM; in assay [4], no less than 500 nM.

Take `[2H]C([2H])([2H])N(Cc1ccc(Nc2cc(Nc3cccc(-c4ncn(C)n4)c3OC)c(C(=O)CC)cn2)nc1)C([2H])([2H])[2H]` [Compound 9W]: the concentration for half-maximal inhibition (IC50) is no less than 500 nM in assay [1], less than 5 nM in assay [2], no less than 500 nM in assay [3] and no less than 500 nM in assay [4].

For the compound `CCC(=O)c1cnc(Nc2ccc([C@@H](C)N3CC(O)C3)cn2)cc1Nc1cccc(-c2ncn(C)n2)c1OC` [Compound 9HH], the IC50 is no less than 500 nM in assay [1], 5 to 50 nM in assay [2], no less than 500 nM in assay [3] and no less than 500 nM in assay [4].

For the origin of these results see patent publication US20230295119A1, “SUBSTITUTED PYRIDINES FOR THE TREATMENT OF INFLAMMATORY DISEASES” (GOSSAMER BIO SERVICES, INC., priority 2020, published 2023).
